Data taken from patent publication US9277761B2, “Nutrition trace element composition” (priority 2003, dated 2016).
Read-outs that look alike come from different tables or passages of the source.

Assays:
[1] = test system: T-lymphocytes and natural killer cells; conditions: humans, 200 μg of selenium a day for eight weeks; cited from earlier work
humans [2] = conditions: in vivo, cited from earlier work
[3] = cited from earlier work
[4] = Study of 52 patients receiving parenteral nutrition: zinc level in serum and whole blood; format: in vivo, humans
Procedure: In a study of 52 patients receiving parenteral nutrition, whereby the patients had haemorrhages, polytrauma/trauma and tumours, in the Vogtland-Klinikum Plauen GmbH, the trace element status of the patients was determined throughout the course of the therapy on the basis of routine medication and routine supplementation.
The goal was to establish whether the routinely administered trace element substitution led to a satisfactory supply of trace elements. For this purpose, the serum and whole blood levels of the trace elements chromium, iron, fluorine, iodine, copper, manganese, molybdenum, selenium and zinc were determined daily, for a minimum of 3 and a maximum of 18 days.
Throughout the above-mentioned observation period, the patients received the normal routine supplementation with the preparations Inzolen HK, Inzolen® sine NaCL, Selenase® and Unizink®, at various times and in various dosages. The trace elements cobalt, copper, manganese, selenium and zinc were administered by means of these preparations, in addition to the macro elements chloride, magnesium, potassium and sodium.
Corresponding to the previous routine, the Inzolen® administrations were made dependent on the daily determined serum potassium level, with the normal range being targeted. Zinc and selenium administration took place on the basis of experience in certain illness situations. The above-mentioned determination of the further macro element and trace element levels was only intended for retrospective observation of the trace element status, and was not included in the daily decision process for any supplementation.
The following reference ranges were the basis for the evaluation:
The second step was to establish what percent of the patients' trace element levels were below, within and above the reference range throughout the entire observation period (3-18 days).
Moreover, the behaviour curves of the trace element levels in the serum and whole blood of each patient were evaluated, whereby performance of further treatments/therapies (Op, CT, accompanying medication, etc.) was taken into consideration.

[5] = cited from earlier work; remark: listed apart in the source
humans [6] = conditions: cited from earlier work; for Outcome of inadvertent intravenous infusion: person
[7] = Ø, entire observation period (3-18 days)
[8] = 20 healthy young men, 160 mg zinc/d for 5 weeks

For [Se] [Selenium], the “Formation of the interleukin-2 receptor, lymphocyte proliferation, cell-destroying effect of T-lymphocytes and natural killer cells” value [1] is given as “increases”, the “Recommended maximum single oral dose” value (humans [2]; po) is given as “at most 50 μg of selenium/kg BW” and the “Dosage seen as harmless” value (humans [2]) is given as “up to 500 μg of selenium a day”. For the same compound, the “Maximum safe ingestion over a longer time frame (WHO 1996)” value (humans [2]) was 400 μg of selenium a day, the “Recommended maximum dose for long-term use” value (humans [2]) was “at most 5 μg of selenium/kg BW” and the “Selenium content of whole blood from which symptoms can appear” value (humans [2]) was ≥ 1000 μg/l of whole blood. For the same compound, the “Selenium ingestion in areas with chronic selenium poisonings” value (humans [2]) was 3-7 mg of selenium a day, the “Portion of selenium taken in with food that leaves the organism renally” value ([3]; in vivo) was 50-70% and the “Selenium substitution required (long-term, continuous)” value (concluded from the results) was 1000 µg/day. The Tendency towards infection (higher versus reduced selenium level) was “reduced tendency towards infection”, the “Selenium level in the serum” value (human, in vivo) was “rose up into the reference range” and the “Selenium whole blood levels” value (human, in vivo) was “rose only to just below the reference range”.

For [Zn] [Zinc], the “Zinc in serum, patients Above reference range” value ([4]; Day 1) was 4%, the “Zinc in serum, patients Below reference range” value ([4]; Day 1) was 76% and the “Zinc in serum, patients Within reference range” value ([4]; Day 1) was 20%. For the same compound, the “Zinc in whole blood, patients Above reference range” value ([4]; Day 1) was 10%, the “Zinc in whole blood, patients Below reference range” value ([4]; Day 1) was 6% and the “Zinc in whole blood, patients Within reference range” value ([4]; Day 1) was 84%. The “Zinc in serum, patients Above reference range” value ([4]; Day 2) was 2%, the “Zinc in serum, patients Below reference range” value ([4]; Day 2) was 85% and the “Zinc in serum, patients Within reference range” value ([4]; Day 2) was 13%. For the same compound, the “Zinc in whole blood, patients Above reference range” value ([4]; Day 2) was 8%, the “Zinc in whole blood, patients Below reference range” value ([4]; Day 2) was 18% and the “Zinc in whole blood, patients Within reference range” value ([4]; Day 2) was 75%. For the same compound, the “Zinc in serum, patients Above reference range” value ([4]; Day 3) was 0%, the “Zinc in serum, patients Below reference range” value ([4]; Day 3) was 78% and the “Zinc in serum, patients Within reference range” value ([4]; Day 3) was 22%. The “Zinc in whole blood, patients Above reference range” value ([4]; Day 3) was 8%, the “Zinc in whole blood, patients Below reference range” value ([4]; Day 3) was 12% and the “Zinc in whole blood, patients Within reference range” value ([4]; Day 3) was 80%. The “Zinc in serum, patients Above reference range” value ([4]; Day 4) was 0%, the “Zinc in serum, patients Below reference range” value ([4]; Day 4) was 86% and the “Zinc in serum, patients Within reference range” value ([4]; Day 4) was 14%. The “Zinc in whole blood, patients Above reference range” value ([4]; Day 4) was 5%, the “Zinc in whole blood, patients Below reference range” value ([4]; Day 4) was 14% and the “Zinc in whole blood, patients Within reference range” value ([4]; Day 4) was 81%. The “Zinc in serum, patients Above reference range” value ([4]; Day 5) was 3%, the “Zinc in serum, patients Below reference range” value ([4]; Day 5) was 80% and the “Zinc in serum, patients Within reference range” value ([4]; Day 5) was 17%. The “Zinc in whole blood, patients Above reference range” value ([4]; Day 5) was 6%, the “Zinc in whole blood, patients Below reference range” value ([4]; Day 5) was 17% and the “Zinc in whole blood, patients Within reference range” value ([4]; Day 5) was 77%. For the same compound, the “Zinc in serum, patients Above reference range” value ([4]; Day 6) was 4%, the “Zinc in serum, patients Below reference range” value ([4]; Day 6) was 68% and the “Zinc in serum, patients Within reference range” value ([4]; Day 6) was 29%. For the same compound, the “Zinc in whole blood, patients Above reference range” value ([4]; Day 6) was 4%, the “Zinc in whole blood, patients Below reference range” value ([4]; Day 6) was 7% and the “Zinc in whole blood, patients Within reference range” value ([4]; Day 6) was 89%. For the same compound, the “Zinc in serum, patients Above reference range” value ([4]; Day 7) was 0%, the “Zinc in serum, patients Below reference range” value ([4]; Day 7) was 63% and the “Zinc in serum, patients Within reference range” value ([4]; Day 7) was 38%. For the same compound, the “Zinc in whole blood, patients Above reference range” value ([4]; Day 7) was 8%, the “Zinc in whole blood, patients Below reference range” value ([4]; Day 7) was 8% and the “Zinc in whole blood, patients Within reference range” value ([4]; Day 7) was 83%. For the same compound, the “Zinc in serum, patients Above reference range” value ([4]; Day 8) was 0%, the “Zinc in serum, patients Below reference range” value ([4]; Day 8) was 50% and the “Zinc in serum, patients Within reference range” value ([4]; Day 8) was 50%. For the same compound, the “Zinc in whole blood, patients Above reference range” value ([4]; Day 8) was 8%, the “Zinc in whole blood, patients Below reference range” value ([4]; Day 8) was 4% and the “Zinc in whole blood, patients Within reference range” value ([4]; Day 8) was 88%. The “Zinc in serum, patients Above reference range” value ([4]; Day 9) was 4%, the “Zinc in serum, patients Below reference range” value ([4]; Day 9) was 43% and the “Zinc in serum, patients Within reference range” value ([4]; Day 9) was 52%. For the same compound, the “Zinc in whole blood, patients Above reference range” value ([4]; Day 9) was 9%, the “Zinc in whole blood, patients Below reference range” value ([4]; Day 9) was 0% and the “Zinc in whole blood, patients Within reference range” value ([4]; Day 9) was 91%. The “Zinc in serum, patients Above reference range” value ([4]; Day 10) was 5%, the “Zinc in serum, patients Below reference range” value ([4]; Day 10) was 33% and the “Zinc in serum, patients Within reference range” value ([4]; Day 10) was 62%. The “Zinc in whole blood, patients Above reference range” value ([4]; Day 10) was 5%, the “Zinc in whole blood, patients Below reference range” value ([4]; Day 10) was 0% and the “Zinc in whole blood, patients Within reference range” value ([4]; Day 10) was 95%. The “Zinc in serum, patients Above reference range” value ([4]; Day 11) was 16%, the “Zinc in serum, patients Below reference range” value ([4]; Day 11) was 16% and the “Zinc in serum, patients Within reference range” value ([4]; Day 11) was 68%. The “Zinc in whole blood, patients Above reference range” value ([4]; Day 11) was 11%, the “Zinc in whole blood, patients Below reference range” value ([4]; Day 11) was 0% and the “Zinc in whole blood, patients Within reference range” value ([4]; Day 11) was 89%. For the same compound, the “Zinc in serum, patients Above reference range” value ([4]; Day 12) was 7%, the “Zinc in serum, patients Below reference range” value ([4]; Day 12) was 20% and the “Zinc in serum, patients Within reference range” value ([4]; Day 12) was 73%. For the same compound, the “Zinc in whole blood, patients Above reference range” value ([4]; Day 12) was 7%, the “Zinc in whole blood, patients Below reference range” value ([4]; Day 12) was 7% and the “Zinc in whole blood, patients Within reference range” value ([4]; Day 12) was 87%. The “Zinc in serum, patients Above reference range” value ([4]; Day 13) was 14%, the “Zinc in serum, patients Below reference range” value ([4]; Day 13) was 7% and the “Zinc in serum, patients Within reference range” value ([4]; Day 13) was 79%. For the same compound, the “Zinc in whole blood, patients Above reference range” value ([4]; Day 13) was 7%, the “Zinc in whole blood, patients Below reference range” value ([4]; Day 13) was 7% and the “Zinc in whole blood, patients Within reference range” value ([4]; Day 13) was 86%. The “Zinc in serum, patients Above reference range” value ([4]; Day 14) was 0%, the “Zinc in serum, patients Below reference range” value ([4]; Day 14) was 8% and the “Zinc in serum, patients Within reference range” value ([4]; Day 14) was 92%. The “Zinc in whole blood, patients Above reference range” value ([4]; Day 14) was 0%, the “Zinc in whole blood, patients Below reference range” value ([4]; Day 14) was 0% and the “Zinc in whole blood, patients Within reference range” value ([4]; Day 14) was 100%. The “Zinc in serum, patients Above reference range” value ([4]; Day 15) was 0%, the “Zinc in serum, patients Below reference range” value ([4]; Day 15) was 8% and the “Zinc in serum, patients Within reference range” value ([4]; Day 15) was 92%. For the same compound, the “Zinc in whole blood, patients Above reference range” value ([4]; Day 15) was 8%, the “Zinc in whole blood, patients Below reference range” value ([4]; Day 15) was 0% and the “Zinc in whole blood, patients Within reference range” value ([4]; Day 15) was 92%. For the same compound, the “Zinc in serum, patients Above reference range” value ([4]; Day 16) was 0%, the “Zinc in serum, patients Below reference range” value ([4]; Day 16) was 9% and the “Zinc in serum, patients Within reference range” value ([4]; Day 16) was 91%. For the same compound, the “Zinc in whole blood, patients Above reference range” value ([4]; Day 16) was 9%, the “Zinc in whole blood, patients Below reference range” value ([4]; Day 16) was 0% and the “Zinc in whole blood, patients Within reference range” value ([4]; Day 16) was 91%. The “Zinc in serum, patients Above reference range” value ([4]; Day 17) was 10%, the “Zinc in serum, patients Below reference range” value ([4]; Day 17) was 10% and the “Zinc in serum, patients Within reference range” value ([4]; Day 17) was 80%. The “Zinc in whole blood, patients Above reference range” value ([4]; Day 17) was 10%, the “Zinc in whole blood, patients Below reference range” value ([4]; Day 17) was 0% and the “Zinc in whole blood, patients Within reference range” value ([4]; Day 17) was 90%. The “Zinc in serum, patients Above reference range” value ([4]; Day 18) was 10%, the “Zinc in serum, patients Below reference range” value ([4]; Day 18) was 10% and the “Zinc in serum, patients Within reference range” value ([4]; Day 18) was 80%. The “Zinc in whole blood, patients Above reference range” value ([4]; Day 18) was 20%, the “Zinc in whole blood, patients Below reference range” value ([4]; Day 18) was 0% and the “Zinc in whole blood, patients Within reference range” value ([4]; Day 18) was 80%. The “Zinc level in the serum” value ([4]; patients with normal whole blood zinc receiving zinc, even high administration) was “scarcely influenced”, the “Zinc in serum, patients Above reference range” value [4, 7] was 14% and the “Zinc in serum, patients Below reference range” value [4, 7] was 38%. For the same compound, the “Zinc in serum, patients Within reference range” value [4, 7] was 49%, the “Zinc in whole blood, patients Above reference range” value [4, 7] was 7% and the “Zinc in whole blood, patients Below reference range” value [4, 7] was 5%. The “Zinc in whole blood, patients Within reference range” value [4, 7] was 88%, the “Concentration in the cerebral spinal fluid relative to plasma concentration” value ([5]; humans) was “a tenth” and the “Portion excreted through the faeces” value ([5]; in vivo) was 90%. The “Portion resorbed from the nourishment” value ([5]; physiological conditions, roughly) was 20-30%, the “Effect of repeated administration” value (humans [6]; 150 mg of zinc a day over 2 years) was “copper deficiency” and the “Outcome of inadvertent intravenous infusion” value (humans [6]; 1.5 g zinc over 60 hours) was “ended fatally”. For the same compound, the HDL cholesterol level (humans [6]; [8]) was “significantly reduced”, the “Total cholesterol, triglycerides and LDL cholesterol” value (humans [6]; [8]) was “normal levels” and the “Effect on the blood lipid levels” value (humans [6]; healthy young women, 100 mg daily for 8 weeks) was “no effect”. For the same compound, the Toxicity (humans [6]; toxic range not starting until quantities in the grams) was “low toxicity”.

For O=S(=O)([O-])[O-].[Zn+2] [ZnSO4], the “Dose considered deadly for adults” value (humans [6]; adults) is listed as 5 g, the “Dose resulting in vomiting” value (humans [6]; in vivo) is listed as 1 to 2 g and the “Outcome of inadvertent intravenous infusion” value (humans [6]; total 7.4 g zinc within 60 hours) is listed as “death”.

For O=[74Se]([O-])[O-].[Na+].[Na+] [[^74Se] sodium selenite], the Dose excreted ([3]; intravenous 82 μg of selenium, first 24 hours) is given as 18% and the “Absorbed dose excreted through the urine” value ([3]; peroral administration, first 24 hours) is given as 12%.
